23 molecules from BindingDB's records for doi:10.7270/Q2TX3CTT (Broad Institute, 2010) can be followed below.

The structures appear in SMILES notation. Structures can show the parent of a compound that is named as a salt.

Sequence of Glycogen synthase kinase-3 beta (P49841 whole entry): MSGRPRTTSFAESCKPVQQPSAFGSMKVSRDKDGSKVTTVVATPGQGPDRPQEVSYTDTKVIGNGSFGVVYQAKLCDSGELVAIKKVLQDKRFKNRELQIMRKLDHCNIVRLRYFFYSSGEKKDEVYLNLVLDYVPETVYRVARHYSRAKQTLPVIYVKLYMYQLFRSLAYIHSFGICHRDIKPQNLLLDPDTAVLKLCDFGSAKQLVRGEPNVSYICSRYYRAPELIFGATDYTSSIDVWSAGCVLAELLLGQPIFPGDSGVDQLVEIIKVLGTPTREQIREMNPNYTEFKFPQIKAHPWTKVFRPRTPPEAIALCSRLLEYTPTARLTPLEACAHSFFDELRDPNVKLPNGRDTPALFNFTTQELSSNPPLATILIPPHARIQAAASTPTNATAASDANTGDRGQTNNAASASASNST

The experiment has as its target Glycogen synthase kinase-3 beta (Homo sapiens, UniProt P49841). In words: GSK3beta kinase inhibitor potency, dose response, biochemical, luminescence, cell-free homogeneous, retest (AID 434954).
As usually defined, the EC50 is the concentration giving half of the maximal effect. A high value points to lower potency in that assay. `O=c1cc(-c2ccccc2Cl)oc2ccc([N+](=O)[O-])c(O)c12` [2-(2-chlorophenyl)-5-hydroxy-6-nitrochromen-4-one] displayed a concentration giving a half-maximal response (EC50) of more than 300 µM.

As to `O=C(CCl)Oc1ccc2occ(C(=O)c3cccs3)c2c1` [SMR000121351], the EC50 stood at 4.54 µM.

In turn, `O=[N+]([O-])c1ccccc1S(=O)(=O)Nc1ccc(S(=O)(=O)Nc2nccs2)cc1` came in with an EC50 of more than 300 µM.

`COc1cccc(C(=O)CSc2nccn2C)c1` [1-(3-Methoxy-phenyl)-2-(1-methyl-1H-imidazol-2-ylsulfanyl)-ethanone]: the concentration giving a half-maximal response (EC50) was more than 300 µM.

As to `O=C(Nc1cccc(-c2cnc3ccccc3n2)c1)c1ccccc1` [N-[3-(2-quinoxalinyl)phenyl]benzamide], the EC50 is more than 300 µM.

Molecule `Oc1ccccc1CN=Nc1nnn[nH]1` [(6E)-6-[(2H-tetrazol-5-ylhydrazo)methylidene]-1-cyclohexa-2,4-dienone] registered an EC50 of more than 300 µM.

With `COc1ccc(C(C)=NNC(=O)CNC(=O)Cc2ccccc2)c(OC)c1` [N-[2-[2-[1-(2,4-dimethoxyphenyl)ethylidene]hydrazinyl]-2-oxoethyl]-2-phenylacetamide], the EC50 is more than 300 µM.

For `N#CCCn1cc(CN=O)c(-c2cccc([N+](=O)[O-])c2)n1` [3-[4-(hydroxyiminomethyl)-3-(3-nitrophenyl)pyrazol-1-yl]propanenitrile], the concentration for a half-maximal effect (EC50) stood at 50.1 µM.

In turn, `CN(C)CCc1cc2c(c3c1ccc1ccccc13)OCO2` [N,N-dimethyl-2-(5-naphtho[2,1-g][1,3]benzodioxolyl)ethanamine;hydrochloride] gave a concentration giving a half-maximal response (EC50) of 25.9 µM.

Molecule `O=C(CN1C(=O)CCC1=O)Nc1cccc(NC(=O)CN2C(=O)CCC2=O)c1` [2-(2,5-dioxo-1-pyrrolidinyl)-N-[3-[[2-(2,5-dioxo-1-pyrrolidinyl)-1-oxoethyl]amino]phenyl]acetamide] returned an EC50 of more than 300 µM.

With `COc1cccc2c1cc1c(=O)n(CC(=O)NCCCN3CCCCC3)nc(C)n12` [2-(9-methoxy-4-methyl-1-oxo-[1,2,4]triazino[4,5-a]indol-2-yl)-N-[3-(1-piperidinyl)propyl]acetamide], the 50% effective concentration (EC50) was more than 300 µM.

As for `COc1nc(N(C)C)nc(N(C#N)CCOC(C)=O)n1` [2-[cyano-[4-(dimethylamino)-6-methoxy-1,3,5-triazin-2-yl]amino]ethyl ethanoate], the EC50 is more than 300 µM.

The molecule `CCSc1nnc(-c2ccncc2)o1` [4-(5-Ethylsulfanyl-[1,3,4]oxadiazol-2-yl)-pyridine] yielded a half-maximal effective concentration (EC50) of more than 300 µM.

In turn, `COc1ccccc1N1CCN(C(=O)Cn2nnc(-c3ccncc3)n2)CC1` [SMR000003468] had an EC50 of more than 300 µM.

`O=C(CN1CCN(Cc2ccccc2Cl)CC1)NN=Cc1ccccn1` had an EC50 of 51.5 µM.

Molecule `CC(=O)c1ccc(Cc2cnc(N)s2)cc1` [1-{4-[(2-amino-1,3-thiazol-5-yl)methyl]phenyl}ethanone] gave an EC50 of more than 300 µM.

The molecule `CCOC(=O)c1ccc(/N=c2\sc(C(=O)OC)cc(=O)n2Cc2ccco2)cc1` [methyl 2-(4-ethoxycarbonylphenyl)imino-3-(furan-2-ylmethyl)-4-oxidanylidene-1,3-thiazine-6-carboxylate] yielded an EC50 of more than 300 µM.

`Oc1ccc2oc3c(c2c1)CCCC3` yielded a concentration for a half-maximal effect (EC50) of more than 300 µM.

With `COc1ccc(C)cc1S(=O)(=O)Nc1cc2c3c(c1)CCN3C(=O)CC2` [SMR000812053], the concentration for a half-maximal effect (EC50) was more than 300 µM.

Take `O=C(c1cccs1)c1coc2ccc(O)c(CN(CCO)CCO)c12` [[4-[[bis(2-hydroxyethyl)amino]methyl]-5-oxidanyl-1-benzofuran-3-yl]-thiophen-2-yl-methanone;hydrochloride]: the EC50 is more than 300 µM.

For `COc1ccc(N2CCN(CC(O)COc3c(OC)cccc3OC)CC2)cc1` (stereo not drawn) [1-(2,6-dimethoxyphenoxy)-3-[4-(4-methoxyphenyl)piperazin-1-yl]propan-2-ol;hydrochloride], the concentration for a half-maximal effect (EC50) is more than 300 µM.

`COc1cccc(N=Nc2c(N)[nH][nH]c2=O)c1` [SMR000231776] gave a 50% effective concentration (EC50) of 19.9 µM.

On to `Cc1ccc(NC(=O)c2ccc(C)c(S(=O)(=O)N3CCCCC3)c2)nc1` [MLS001078236], for which the EC50 was more than 300 µM.
